According to patent US20100168099A1, “1H-QUINOLIN-4-ONE COMPOUNDS, WITH AFFINITY FOR THE GABA RECEPTOR, PROCESSES, USES AND COMPOSITIONS” (FERRER INTERNACIONAL, S.A., priority 2006, published 2010):

Experiments:
[1] = system: spontaneous motor activity of male CD1 mice; experiment: In vivo predictive sedation-hypnosis test (traveled distance); details: Mus musculus, ip, 0.5 h, 98 μmol/kg, single intraperitoneal dose, 30 minutes after dosing (first 5 min discarded), versus control
Method: b) In Vivo Determination of Predictive Sedative-Hypnotic Action
The in vivo effects of these compounds were assessed by a predictive sedation-hypnosis test in mice (D. J. Sanger et al., Eur. J. Pharmacol., 313, 35-42, 1996; and G. Griebel et al., Psychopharmacology, 146, 205-213, 1999).
Groups of 5-8 male CD1 mice, weighing 22-26 g at the time of test, were used. The test compounds were administered in single equimolecular intraperitoneal doses, suspended in 0.25% agar with one drop of Tween in a volume of 10 mL/kg. Control animals received the vehicle alone. Using a Smart System (Panlab, S. L., Spain) the traveled distance in cm was recorded for each mouse at 5 min intervals during a period of 30 minutes after dosing. The inhibition percentage traveled distance of treated animals versus control animals (the first 5 min were discarded) was calculated.

[2] = system: α1-GABAA receptor; experiment: Ligand-binding assay, radiolabeled flumazenil competition, cerebellum membranes; parameters: species or system rat; details: for Affinity for the α1-subunit of the GABAA receptor, % inhibition: rat cerebellum membranes, radiolabeled flumazenil 1 nM; for affinity for α1-subunit of GABAA receptor (in words): compared with zolpidem where stated; for α1-/α2-selectivity (in words): compared with zolpidem
Method: (§1) a) Ligand-binding Assays. Determination of the Affinity of Test Compounds for α1- and α2-GABAA, Receptor
(§2) Male Sprague-Dawley rats weighing 200-250 g at the time of experiment were used. After decapitation of the animal, the cerebellum (tissue that mostly contains α1-GABAA receptor) and spinal cord (tissue that mostly contains α2-GABAA receptor) were removed. The membranes were prepared according to the method by J. Lameh et al. (Prog. Neuro-Psychopharmacol. Biol. Psychiatry, 24, 979-991, 2000) and H. Noguchi et al. (Eur J Pharm, 434, 21-28, 2002) with slight modifications. Once the tissues weighed, they were suspended in 50 mM Tris.HCl (pH 7.4), 1:40 (v/v), or sucrose 0.32 M in the case of spinal cord, homogenized and then centrifuged at 20,000 g for 10 min at 7° C. The resulting pellet was resuspended under the same conditions and centrifuged again. The pellet was finally resuspended on a minimum volume and kept at −80° C. overnight. On the next day, the process was repeated until the final pellet was resuspended at a ratio of 1:10 (v/v) in the case of cerebellum and at a ratio of 1:5 (v/v) in the case of spinal cord.
(§3) Affinity was determined by competitive tests using radiolabeled flumazenil as ligand. The tests were performed according to the methods described by S. Arbilla et al. (Eur. J. Pharmacol., 130, 257-263, 1986); and Y. Wu et al. (Eur. J. Pharmacol., 278, 125-132, 1995) using 96-well microtiter plates. The membranes containing the study receptors, flumazenil (radiolabeling at a final concentration of 1 nM) and ascending concentrations of test compounds (in a total volume of 230 μL in 50 mM [pH 7.4] Tris.HCl buffer) were incubated. Simultaneously, the membranes were only incubated with the radiolabeled flumazenil (total binding, 100%) and in the presence of an elevated concentration of unradiolabeled flumazenil (non-specific binding, % estimation of radiolabeled ligand). The reactions started on adding the radiolabeled ligand followed by incubation for 60 minutes at 4° C. At the end of the incubation period, 200 μL of reaction were transferred to a multiscreen plate (Millipore) and filtered using a vacuum manifold and then washed three times with cold test buffer. The multiscreen plates were equipped with a GF/B filter that retained the membranes containing the receptors and the radiolabeled ligand which had been bound to the receptors. After washing, the plates were left till dry. Once dried, scintillation liquid was added and left under stirring overnight. The next day the plates were counted using a Perkin-Elmer Microbeta scintillation counter.
(§4) For analysis of the results the percentage of specific binding for every concentration of test compound was calculated as follows:
(§5) % specific binding=(X−N/T−N)×100
(§6) where, X: amount of bound ligand for every concentration of compound. T: total binding, maximum amount bound to the radiolabeled ligand. N: non-specific binding, amount of radiolabeled ligand bound in a non-specific way irrespective of the receptor used.
(§7) Every concentrations of compound were tested in triplicate and their mean values were used to determine the experimental values of % specific binding versus the concentration of compound. Affinity data are expressed as % inhibition at 10^−5M and 10^−7M concentrations.

[3] = system: α2-GABAA receptor; experiment: Ligand-binding assay, radiolabeled flumazenil competition, spinal cord membranes; parameters: species or system rat; details: for Affinity for the α2-subunit of the GABAA receptor, % inhibition: rat spinal cord membranes, radiolabeled flumazenil 1 nM; for affinity for the α2-subunit of GABAA receptor (in words): compared with zolpidem where stated
Method: as §1, §2, §3, §4, §5, §6, §7

Row | Structure (SMILES) | inhibition in vivo at 98 µmol/kg [1] | Affinity for the α1-subunit of the GABAA receptor, % inhibition ([2]; 10^−5M) | Affinity for the α1-subunit of the GABAA receptor, % inhibition ([2]; 10^−7M) | affinity for α1-subunit of GABAA receptor (in words) [2] | Affinity for the α2-subunit of the GABAA receptor, % inhibition ([3]; 10^−5M) | Affinity for the α2-subunit of the GABAA receptor, % inhibition ([3]; 10^−7M) | α1-/α2-selectivity (in words) [2] | affinity for the α2-subunit of GABAA receptor (in words) [3]
1 | C=CCN(CC=C)C(=O)Cn1cc(-c2ccccc2)c(=O)c2ccc(Br)cc21 [Example 129, N,N-Diallyl-2-(7-bromo-4-oxo-3-phenyl-4H-quinolin-1-yl)-acetamide] | 93.5% | 99.7% | 85.2% | higher affinity |  |  |  | 
2 | Cc1ccc2c(=O)c(-c3ccccc3)cn(CC(=O)N3CC(C)OC(C)C3)c2c1 (stereo not shown) [Example 32, 1-[2-(2,6-Dimethyl-morpholin-4-yl)-2-oxo-ethyl]-7-methyl-3-phenyl-1H-quinolin-4-one] | 90% | 86.2% | 18.4% |  | 55.4% | 0.0% | higher α1-/α2-selectivity than the most selective therapeutically used compound zolpidem | 
3 | CCCN(CC1CC1)C(=O)Cn1cc(-c2ccccc2)c(=O)c2ccc(C)cc21 [Example 39, N-Cyclopropylmethyl-2-(7-methyl-4-oxo-3-phenyl-4H-quinolin-1-yl)-N-propyl-acetamide] | 92.5% | 98.8% | 56.3% | higher affinity | 93.4% | 28.5% |  | 
4 | Cc1ccc(-c2nc3ccc(C)cn3c2CC(=O)N(C)C)cc1 [zolpidem, reference compound] | 91.7% | 99.8% | 51.9% |  | 74.1% | 19.9% |  | 
5 | C=CCN(CC=C)C(=O)Cn1cc(-c2ccccc2)c(=O)c2ccc(C)cc21 [Example 43, N,N-Diallyl-2-(7-methyl-4-oxo-3-phenyl-4H-quinolin-1-yl)-acetamide] | 91% | 99.0% | 49.9% |  | 88.2% | 12.5% |  | higher affinity than prior art compound zolpidem
6 | COc1ccc(NC(=O)Cn2cc(-c3ccc(OC)cc3)c(=O)c3ccc(C)cc32)cc1 [Example 80, N-(4-Methoxy-phenyl)-2-[3-(4-methoxy-phenyl)-7-methyl-4-oxo-4H-quinolin-1-yl]acetamide] | 71.9% | 78.5% | 28.5% |  | 65.1% | 15.7% |  | 
7 | CCN(CC)C(=O)Cn1cc(-c2ccccc2)c(=O)c2ccc(C)cc21 [Example 17, N,N-Diethyl-2-(7-methyl-4-oxo-3-phenyl-4H-quinolin-1-yl)-acetamide] | 81.5% | 91.4% | 0.7% |  | 70.1% | 0.0% |  | 
8 | Cc1ccc2c(=O)c(-c3ccccc3)cn(CC(=O)N3CCCCC3)c2c1 [Example 15, 7-Methyl-1-(2-oxo-2-piperidin-1-yl-ethyl)-3-phenyl-1H-quinolin-4-one] | 84.7% | 87.3% | 0.0% |  | 13.3% | 0.0% | higher α1-/α2-selectivity than the most selective therapeutically used compound zolpidem | 
9 | Cc1ccc2c(=O)c(-c3ccccc3)cn(CC(=O)c3ccccn3)c2c1 [Example 28, 7-Methyl-1-(2-oxo-2-pyridin-2-yl-ethyl)-3-phenyl-1H-quinolin-4-one] | 84.4% | 97.9% | 22.5% |  | 88.0% | 0.0% |  | 
10 | Cc1ccc2c(=O)c(-c3ccccc3)cn(CC(=O)c3cccs3)c2c1 [Example 27, 7-Methyl-1-(2-oxo-2-thiophen-2-yl-ethyl)-3-phenyl-1H-quinolin-4-one] | 70% | 97.7% | 14.0% |  | 89.9% | 8.4% |  | higher affinity than prior art compound zolpidem
11 | CCCN(CCC)C(=O)Cn1cc(-c2ccccc2)c(=O)c2ccc(C)cc21 [Example 14, 2-(7-Methyl-4-oxo-3-phenyl-4H-quinolin-1-yl)-N,N-dipropyl-acetamide] | 96.2% | 98.4% | 36.7% | higher affinity | 77.3% | 40.6% |  | 
12 | CCCN(CCC)C(=O)Cn1cc(-c2ccccc2)c(=O)c2ccc(Br)cc21 [Example 44, 2-(7-Bromo-4-oxo-3-phenyl-4H-quinolin-1-yl)-N,N-dipropyl-acetamide] | 95.2% | 99.8% | 61.9% | higher affinity |  |  |  | 
13 | Cc1ccc2c(=O)c(-c3ccccc3)cn(CC(=O)c3oc(C)nc3C)c2c1 [Example 33, 1-[2-(2,4-Dimethyl-oxazol-5-yl)-2-oxo-ethyl]-7-methyl-3-phenyl-1H-quinolin-4-one] | 91.7% | 97.0% | 33.9% |  |  |  |  | 
14 | CCCN(CCC)C(=O)Cn1cc(-c2ccc(OC)cc2)c(=O)c2ccc(C)cc21 [Example 36, 2-[3-(4-Methoxy-phenyl)-7-methyl-4-oxo-4H-quinolin-1-yl]-N,N-dipropyl-acetamide] | 92.1% | 95.9% | 20.3% |  |  |  |  | 
15 | Cc1cccc2c1c(=O)cc(-c1ccccc1)n2CC(=O)N1CCOCC1 [Example 1, 5-Methyl-1-(2-morpholin-4-yl-2-oxo-ethyl)-2-phenyl-1H-quinolin-4-one] |  | 99.5% | 57.9% | higher affinity |  |  |  | 
16 | Cc1cccc2c1c(=O)cc(-c1ccccc1)n2CC(=O)N1CCCC1 [Example 11, 5-Methyl-1-(2-oxo-2-pyrrolidin-1-yl-ethyl)-2-phenyl-1H-quinolin-4-one] |  | 99.9% | 52.6% | higher affinity |  |  |  | 
